# In patent publication US20230131899A1, “INHIBITORS OF MICROBIALLY INDUCED AMYLOID” (Axial Therapeutics, Inc., priority 2020, published 2023):
# Like-named read-outs stand apart in the source and are kept apart here.
# Tested on: CsgA gene expression (csgBAC promoter-GFP reporter) in E. coli UTI89
# Assay: In vitro live cell fluorescent reporter assay of CsgA transcription (Reporter Assay)
# Format: cell-based
# Conditions: Escherichia coli
# Procedure, shortened: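 Compounds at 0.14–100 μM (1% DMSO final) incubated 20 h at 27 °C in YESCA broth with UTI89 carrying a single-copy GFP reporter under the csgBAC intergenic promoter region, inoculum OD600 0.003. Fluorescence normalized to vehicle wells gave IC50 and 50%-of-vehicle concentration; OD600 reduction >10% flagged growth impact.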
# [1] = read-out: Reporter Assay Abs IC50 (activity range), median Abs IC50 in the CsgA reporter assay, class symbol
# [2] = read-out: Reporter Assay Abs IC50 (μM), median Abs IC50 in the CsgA reporter assay, N/A = maximum expression reduction is <50% of control
# [3] = read-out: Reporter Assay Abs IC50, activity range, class symbol
SMILES,IC50 [1],IC50 [2],IC50 [3]
"Cn1c(=O)c2c(nc(CCCCCCCN3CC(C(=O)O)n4c(c(-c5cccc(C(F)(F)F)c5)c(Cc5cccc6ccccc56)cc4=O)S3(=O)=O)n2C)n(C)c1=O (stereo not drawn) [Compound 047, 8-(naphthalen-1-ylmethyl)-6-oxo-9-(3-(trifluoromethyl)phenyl)-2-(7-(1,3,7-trimethyl-2,6-dioxo-2,3,6,7-tetrahydro-1H-purin-8-yl)heptyl)-3,4-dihydro-2H,6H-pyrido[1,2-e][1,2,5]thiadiazine-4-carboxylic acid 1,1-dioxide]",< 1.3 µM,0.9 µM,
"CNC(=O)CCCCN1CC(C(=O)O)n2c(c(-c3cccc(C(F)(F)F)c3)c(Cc3cccc4ccccc34)cc2=O)S1(=O)=O (stereo not drawn) [Compound 038, 2-(5-(methylamino)-5-oxopentyl)-8-(naphthalen-1-ylmethyl)-6-oxo-9-(3-(trifluoromethyl)phenyl)-3,4-dihydro-2H,6H-pyrido[1,2-e][1,2,5]thiadiazine-4-carboxylic acid 1,1-dioxide]",> 10 µM,24 µM,
"Cn1c(=O)c2c(nc(CCCCN3CC(C(=O)O)n4c(c(-c5cccc(C(F)(F)F)c5)c(Cc5cccc6ccccc56)cc4=O)S3(=O)=O)n2C)n(C)c1=O (stereo not drawn) [Compound 044, 8-(naphthalen-1-ylmethyl)-6-oxo-9-(3-(trifluoromethyl)phenyl)-2-(4-(1,3,7-trimethyl-2,6-dioxo-2,3,6,7-tetrahydro-1H-purin-8-yl)butyl)-3,4-dihydro-2H,6H-pyrido[1,2-e][1,2,5]thiadiazine-4-carboxylic acid 1,1-dioxide]",1.3 to 4.5 µM,1.5 µM,
"CCCCN1CC(C(=O)O)n2c(c(-c3cccc(C(F)(F)F)c3)c(Cc3cccc4ccccc34)c(C(N)=O)c2=O)S1(=O)=O (stereo not drawn) [Compound 177, 2-butyl-7-carbamoyl-8-(naphthalen-1-ylmethyl)-6-oxo-9-(3-(trifluoromethyl)phenyl)-3,4-dihydro-2H,6H-pyrido[1,2-e][1,2,5]thiadiazine-4-carboxylic acid 1,1-dioxide]",,1.3 µM,1.3 to 4.5 µM
"CCCN1CC(C(=O)O)n2c(c(-c3cccc(C(F)(F)F)c3)c(C(F)(F)c3cccc4ccccc34)cc2=O)S1(=O)=O (stereo not drawn) [Compound 138, 8-(difluoro(naphthalen-1-yl)methyl)-6-oxo-2-propyl-9-(3-(trifluoromethyl)phenyl)-3,4-dihydro-2H,6H-pyrido[1,2-e][1,2,5]thiadiazine-4-carboxylic acid 1,1-dioxide]",,2.5 µM,1.3 to 4.5 µM
"O=C(O)C1CN(Cc2ccccc2)c2c(-c3cccc(C(F)(F)F)c3)c(C(F)(F)c3cccc4ccccc34)c(Br)c(=O)n21 (stereo not drawn) [Compound 155, 1-benzyl-6-bromo-7-(difluoro(naphthalen-1-yl)methyl)-5-oxo-8-(3-(trifluoromethyl)phenyl)-1,2,3,5-tetrahydroimidazo[1,2-a]pyridine-3-carboxylic acid]",,3 µM,1.3 to 4.5 µM
"O=C(O)[C@@H]1CN(Cc2ccccc2)c2c(-c3cccc(C(F)(F)F)c3)c(Cc3cccc4ccccc34)c(Cl)c(=O)n21 (single isomer, unassigned) [Compound 004a]",,0.2 µM,< 1.3 µM
"O=C(O)C1CN(Cc2ccccc2)c2c(-c3cccc(C(F)(F)F)c3)c(Cc3cccc4ccccc34)cc(=O)n21 (stereo not drawn) [Compound 187, 1-benzyl-7-(naphthalen-1-ylmethyl)-5-oxo-8-(3-(trifluoromethyl)phenyl)-1,2,3,5-tetrahydroimidazo[1,2-a]pyridine-3-carboxylic acid]",,19 µM,> 10 µM
"CCNC(=O)c1c(Cc2cccc3ccccc23)c(-c2cccc(C(F)(F)F)c2)c2n(c1=O)C(C(=O)O)CN(C)S2(=O)=O (stereo not drawn) [Compound 156, 7-(ethylcarbamoyl)-2-methyl-8-(naphthalen-1-ylmethyl)-6-oxo-9-(3-(trifluoromethyl)phenyl)-3,4-dihydro-2H,6H-pyrido[1,2-e][1,2,5] thiadiazine-4-carboxylic acid 1,1-dioxide]",,9.3 µM,4.6 to 10 µM
